Results from US20190234936A1 (priority 2016, published 2019).

Tested on: human neutrophils
Type: cell-based

CCCCCCCCCCCCCC(=O)O[C@@H]1[C@@H](C)[C@@]2(O)[C@@H](C=C(CO)C[C@]3(O)C(=O)C(C)=C[C@@H]23)[C@@H]2C(C)(C)[C@]12OC(C)=O [PMA, phorbol 12-myristate 13-acetate]
NET formation (DNA staining): abundant lattices of extracellular NET-DNA filaments
